Data on 2 molecules can be found in patent publication US6120997A, “Nucleic acid binders having an hydroxyamine motif” (The Scripps Research Institute, priority 1998, dated 2000).

For series [1], the system named is Escherichia coli (ATCC 25922). In words: minimum inhibitory concentration, broth dilution technique. In kind it is cell-based. The following applies: E. coli, liquid culture. An excerpt:
We reasoned that this modification would provide the cleanest test for probing the ionic contribution, since hydrogen bond donor abilities, electronegativity and steric demand are similar for both functional groups. In order to learn how well the model system correlates with in vivo activity, we checked the new compounds for antibacterial activity against three bacterial strains using the disc method (Kirby-Bauer technique). The minimum inhibitory concentrations (MICs) of the compounds were then determined using the broth dilution technique. For antibiotic testing protocols, see: (a) Disk testing protocols: Phillips, I.; Williams, D., in Laboratory Methods in Antimicrobial Chemotherapy, Garrod, L. (ed.) Churchill Livingstone Press: Edinburgh, 1978, pp. 3-30. (b) MIC determination: Waterworth, P. M., in Laboratory Methods in Antimicrobial Chemotherapy, Garrod, L. (ed.) Churchill Livingstone Press: Edinburgh, 1978, pp. 31-40; Barry, A. L. The Antimicrobic Susceptibility Test: Principles and Practice, Lea and Febiger: Philadelphia (1976). (c) Standards: Lorian, V., Antibiotics in Laboratory Medicine (2nd. ed.), Williams and Wilkins: Baltimore, 1986.
FIG. 39A gives the zone diameters measured for the three bacterial strains. The zone diameters measured for the strains with known antibiotics are well within the accepted limits. […] It is worth noting that some testing protocols recommend overnight growth of the cultures, rather than the minimum time required to obtain good growth of the control. MIC values were tested for several of the control antibiotics using overnight growth, and the MIC values observed were 2-4× greater than those observed for 4-6 hour growth.
Minimal Inhibitory Concentration (MIC) testing. E. coli ATCC 25922 was grown in Mueller-Hinton broth (cation-adjusted, BBL Microbiology Systems) to an optical density of approx. 0.5 (absorbance read at 600 nm), then diluted to an OD600 of 0.1. Samples of antibiotic were prepared in Mueller-Hinton broth, typically a series of 2-fold dilutions from […]. […] The absorbance of each sample was read (1=600 nm), and MIC was considered to be the lowest antibiotic concentration at which the absorbance was less than 1% of the no-antibiotic control.

In the next series the test system is AS-wt. In words: SPR binding of aminoglycosides to decoding region A-site model AS-wt. The arrangement: species or system E. coli. The following applies: for RNA binding, affinity or specificity for AS-wt (in words): Example 4; for specificity for AS-wt over negative controls (in words): Example 5, HBS-buffer. The essentials:
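Compounds were injected over biotinylated RNA immobilized on streptavidin SPR chips in HBS (150 mM NaCl, 10 mM HEPES pH 7.4, 3.4 mM EDTA) […]. KD was obtained by non-linear fitting of equilibrium binding isotherms; the KD(AS-U1495A)/KD(AS-wt) ratio defines specificity.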

Series [2] has as its system bacterial protein synthesis. Conditions: cited from earlier work.
The conditions of series [3]: cited from earlier work.
The test system of the next series is AS-U1495A. As to the kind of experiment: SPR binding of aminoglycosides to AS-U1495A. The following applies: HBS-buffer. The protocol:
The RNA binding properties of 100-800 were analyzed using a surface plasmon resonance based assay that was recently developed in these laboratories. This assay allows the determination of both affinity and specificity of small molecule-RNA interactions. For the analysis, the compounds were injected over a matrix containing RNA that was immobilized through a biotin tag and the equilibrium binding values were recorded at various concentrations.
Non-linear curve fitting was then used to determine the values of the dissociation constants (KD). The specificity of binding, i.e. the ability to discriminate between different RNA sequences was evaluated by comparing the binding to the target sequence (AS-wt) and the negative control (AS-U1495A). […]
For the quantitative measurement of aminoglycoside binding to these sequences, we utilized our recently developed SPR-based assay. […]
In the same manner as illustrated for paromomycin, a panel of aminoglycosides was screened and the results are compiled in the table of FIGS. 46 and 47. […] All data were recorded under near physiological salt conditions (HBS-buffer: 150 mM NaCl, 10 mM HEPES, pH7.4, 3.4 mM EDTA) unless noted otherwise. […]
Plasmon resonance and antimicrobial testing for Example 4. Synthesis of the biotinylated RNA and surface plasmon resonance detected binding experiments were performed as described vida supra. […]

Another series relates to Rev-RRE. Conditions: cited from earlier work.

Each structure is given as a SMILES string. Entries after “also recorded” stand apart in the source; their conditions may differ.

Consider `NC[C@@H]1O[C@H](O[C@H]2[C@@H](O)[C@H](O[C@@H]3[C@@H](O)[C@H](N)C[C@H](N)[C@H]3O[C@H]3O[C@H](CN)[C@@H](O)[C@H](O)[C@H]3N)O[C@@H]2CO)[C@H](N)[C@@H](O)[C@@H]1O` [Neomycin B], for which the “antibacterial activity / MIC compared with neomycin B (in words)” value in series [1] is “within accepted ranges for sensitive E. coli strains”. In the series on AS-wt, the “RNA binding, affinity or specificity for AS-wt (in words)” value was “tightest binder; also recorded: further improvement of the overall affinity, without affecting specificity” and the “specificity for AS-wt over negative controls (in words)” value is listed as “specific for AS-wt over the negative control RNAs”. For the same molecule, the “effect on bacterial protein synthesis (in words)” value in series [2] is “induces miscoding during translation”. For the same molecule, the “pKa of N3” value in series [3] was below 6.
Consider `NC[C@@H]1O[C@H](O[C@H]2[C@@H](O)[C@H](O[C@@H]3[C@@H](O)[C@H](N)C[C@H](N)[C@H]3O[C@H]3O[C@H](CO)[C@@H](O)[C@H](O)[C@H]3N)O[C@@H]2CO)[C@H](N)[C@@H](O)[C@@H]1O` [Paromomycin], for which, in the series with AS-U1495A, the “weaker binding to AS-U1495A than to AS-wt” value was 20 fold. In the series on AS-wt, the “RNA binding, affinity or specificity for AS-wt (in words)” value is listed as “somewhat higher affinity but lower specificity” and the “specificity for AS-wt over negative controls (in words)” value was “specific for AS-wt over the negative control RNAs”. In addition, in the series with AS-wt (Neo16bd, AS-wt and RBE3), the “temperature dependence of binding to AS-wt (in words)” value is listed as “tighter at lower temperature”. Further, the “reported inhibitory effect on Rev-RRE binding (in words)” value in the series with Rev-RRE was “virtually no inhibitory effect”. The “reported inhibition difference between neomycin B and paromomycin, Rev-RRE” value with Rev-RRE (gel-shift assays) is listed as above 100 fold.
